Patent US20140005163A1 (NOVARTIS AG, priority 2010, published 2014)

Experiments:
PI3K delta = target: T1, PI3K delta (Homo sapiens, UniProt O00329); assay: PI3K delta kinase assay (Kinase-Glo luminescence); type: biochemical
T1 construct: for the full-length p110-d subunit are generated and fused by overlapping PCR; p85(iSH2) fusion partner (see partner chain) (N); His tag (C); made in house; host or cells: baculovirus; Tn5 (Trichoplusia ni) or TiniPro insect cells
Outline: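 Inhibition is derived from luminescent detection of unconsumed ATP. The reaction runs for one hour at ambient temperature and contains the δ isoform fusion protein, phosphatidylinositol substrate and low (1 μM) ATP. Eight compound concentrations are tested in single, and a 4-parameter logistic model is used to calculate IC50.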

mTOR = target: T2, mTOR (Homo sapiens, UniProt P42345); assay: Biochemical assay for m-TOR by TR-FRET; details: 8 μM ATP, 400 nM GFP-4EBP1, 0.5 nM mTOR
T2 construct: purchased Invitrogen Corporation (Carlsbad/CA, USA) PV4753
Outline: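 mTOR (0.5 nM final) phosphorylated GFP-4EBP1 (400 nM final) with ATP (8 μM final) at rt in 50 mM HEPES pH 7.5, 10 mM MnCl2, 50 mM NaCl, 1 mM EGTA, 1 mM DTT. EDTA stop with Tb3+-anti-p4EBP1 [pThr46] antibody (0.5 nM); TR-FRET read 15 min later.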

[1] = test system: S6 Ribosomal Protein phosphorylation Ser235/236 in TSC1 null mouse embryo fibroblast (MEF) cells; assay: Reverse protein array assay, S6 Ribosomal Protein phosphorylation Ser235/236 in TSC1 null MEF cells; type: cell-based; details: 1 h, pS6 ribosomal protein Ser235/236, 60 minutes incubation, read-out: p-S6 IC50
Outline: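 TSC1−/− MEFs, seeded and held ≥20 h at 37 °C/5% CO2, were exposed to 8-step serial compound dilutions (0.02% DMSO final; DMSO vehicle control) for 60 min at 37 °C. Cells were then lysed on ice for 10 min and lysates spotted onto reverse protein array chips.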

T1 sequence (O00329 with tags, fused parts or gaps limits assumed): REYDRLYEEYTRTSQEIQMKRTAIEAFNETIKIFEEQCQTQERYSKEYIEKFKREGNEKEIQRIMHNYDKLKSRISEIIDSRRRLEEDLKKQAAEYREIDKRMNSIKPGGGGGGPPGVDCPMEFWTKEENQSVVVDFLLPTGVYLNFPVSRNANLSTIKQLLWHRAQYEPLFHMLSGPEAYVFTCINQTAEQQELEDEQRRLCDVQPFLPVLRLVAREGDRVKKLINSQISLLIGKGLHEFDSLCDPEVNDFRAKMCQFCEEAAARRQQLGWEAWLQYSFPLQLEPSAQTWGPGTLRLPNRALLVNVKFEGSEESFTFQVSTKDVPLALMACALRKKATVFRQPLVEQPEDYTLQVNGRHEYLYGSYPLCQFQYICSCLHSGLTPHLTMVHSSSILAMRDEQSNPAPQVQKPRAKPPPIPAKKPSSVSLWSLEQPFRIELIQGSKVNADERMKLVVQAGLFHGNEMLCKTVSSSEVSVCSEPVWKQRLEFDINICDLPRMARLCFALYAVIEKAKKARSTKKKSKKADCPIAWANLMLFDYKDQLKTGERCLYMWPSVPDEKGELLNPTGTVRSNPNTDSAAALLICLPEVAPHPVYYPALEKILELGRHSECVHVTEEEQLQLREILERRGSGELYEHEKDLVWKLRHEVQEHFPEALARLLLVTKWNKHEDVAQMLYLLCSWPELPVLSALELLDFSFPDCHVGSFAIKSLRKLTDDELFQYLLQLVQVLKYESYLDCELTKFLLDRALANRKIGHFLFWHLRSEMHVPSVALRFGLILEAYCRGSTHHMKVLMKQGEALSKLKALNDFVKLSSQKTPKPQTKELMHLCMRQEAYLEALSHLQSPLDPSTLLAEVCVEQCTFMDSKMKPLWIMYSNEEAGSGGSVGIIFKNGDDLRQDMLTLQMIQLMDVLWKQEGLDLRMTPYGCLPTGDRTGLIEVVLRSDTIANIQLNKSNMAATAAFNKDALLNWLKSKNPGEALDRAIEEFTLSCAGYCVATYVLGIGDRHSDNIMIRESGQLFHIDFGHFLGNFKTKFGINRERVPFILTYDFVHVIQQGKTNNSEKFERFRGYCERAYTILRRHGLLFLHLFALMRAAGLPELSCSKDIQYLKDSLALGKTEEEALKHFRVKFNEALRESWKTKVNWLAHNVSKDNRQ
T2 sequence (P42345 1360-2549 limits assumed): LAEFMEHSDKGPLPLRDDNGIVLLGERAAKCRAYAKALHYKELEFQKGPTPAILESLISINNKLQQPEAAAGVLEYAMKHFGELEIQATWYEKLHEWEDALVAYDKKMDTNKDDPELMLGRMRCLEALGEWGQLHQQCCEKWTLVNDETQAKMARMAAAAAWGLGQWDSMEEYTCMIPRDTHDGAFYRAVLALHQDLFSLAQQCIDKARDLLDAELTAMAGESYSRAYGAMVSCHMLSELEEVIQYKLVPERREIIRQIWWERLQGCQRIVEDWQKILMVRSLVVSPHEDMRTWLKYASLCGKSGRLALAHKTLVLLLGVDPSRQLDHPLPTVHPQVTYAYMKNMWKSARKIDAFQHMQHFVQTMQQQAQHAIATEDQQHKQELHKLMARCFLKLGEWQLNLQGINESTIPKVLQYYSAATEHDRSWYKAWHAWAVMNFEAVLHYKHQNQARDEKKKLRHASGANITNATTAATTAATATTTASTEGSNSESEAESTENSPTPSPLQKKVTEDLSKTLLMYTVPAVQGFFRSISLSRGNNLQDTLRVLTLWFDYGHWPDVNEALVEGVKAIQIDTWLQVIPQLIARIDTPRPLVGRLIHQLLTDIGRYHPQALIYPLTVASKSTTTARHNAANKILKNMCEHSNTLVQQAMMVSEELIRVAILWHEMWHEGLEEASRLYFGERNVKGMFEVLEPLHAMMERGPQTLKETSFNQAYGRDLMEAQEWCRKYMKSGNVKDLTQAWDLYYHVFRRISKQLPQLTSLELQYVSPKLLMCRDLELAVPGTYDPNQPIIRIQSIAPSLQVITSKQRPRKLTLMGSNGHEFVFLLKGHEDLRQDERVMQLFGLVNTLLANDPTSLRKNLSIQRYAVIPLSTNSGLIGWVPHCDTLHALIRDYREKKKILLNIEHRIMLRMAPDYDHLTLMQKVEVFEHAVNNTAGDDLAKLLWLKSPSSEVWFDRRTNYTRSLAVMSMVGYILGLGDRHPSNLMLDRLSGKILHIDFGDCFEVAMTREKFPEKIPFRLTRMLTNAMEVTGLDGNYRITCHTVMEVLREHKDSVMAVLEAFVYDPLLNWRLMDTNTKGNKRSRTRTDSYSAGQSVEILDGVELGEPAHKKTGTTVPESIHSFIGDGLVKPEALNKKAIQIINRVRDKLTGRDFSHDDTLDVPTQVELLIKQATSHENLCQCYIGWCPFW

Row | IC50 (PI3K delta) [nM] | IC50 (mTOR) [nM] | SMILES | IC50 [1] [nM]
1 | 6 | 16 | CCOc1cc(-c2ccc3ncc4c(c3c2)n(-c2cn(CC)nc2C)c(=O)n4C)ccc1OC [Example 28.1, 8-(3-Ethoxy-4-methoxy-phenyl)-1-(1-ethyl-3-methyl-1H-pyrazol-4-yl)-3-methyl-1,3-dihydro-imidazo[4,5-c]quinolin-2-one] | < 5
2 | 41 | 24 | CNC(=O)c1cc(-c2ccc3ncc4c(c3c2)n(-c2cn(C(C)C)nc2C)c(=O)n4C)cnc1N [Example 224.2, 2-Amino-5-[1-(1-isopropyl-3-methyl-1H-pyrazol-4-yl)-3-methyl-2-oxo-2,3-dihydro-1H-imidazo[4,5-c]quinolin-8-yl]-N-methyl-nicotinamide] | 20
3 | 11 | 41 | CCn1cc(-n2c(=O)n(C)c3cnc4ccc(-c5cnc(N)c(COC)c5)cc4c32)c(C)n1 [Example 168.2, 8-(6-Amino-5-methoxymethyl-pyridin-3-yl)-1-(1-ethyl-3-methyl-1H-pyrazol-4-yl)-3-methyl-1,3-dihydro-imidazo[4,5-c]quinolin-2-one] | < 0.5
4 | 42 | 13 | CCOc1cc(-c2ccc3ncc4c(c3c2)n(-c2cn(C)nc2C)c(=O)n4C)ccc1OC [Example 28.3, 1-(1,3-Dimethyl-1H-pyrazo1-4-yl)-8-(3-ethoxy-4-methoxy-phenyl)-3-methyl-1,3-dihydro-imidazo[4,5-c]quinolin-2-one] | 2
5 | 44 | 447 | CNc1ncc(-c2ccc3ncc4c(c3c2)n(-c2c(C)nn(C)c2C)c(=O)n4C)cc1F [Example 141.1, 8-(5-Fluoro-6-methylamino-pyridin-3-yl)-3-methyl-1-(1,3,5-trimethyl-1H-pyrazol-4-yl)-1,3-dihydro-imidazo[4,5-c]quinolin-2-one] | 34
6 | 40 | 10 | COc1ncc(-c2ccc3ncc4c(c3c2)n(-c2cn(C)nc2C)c(=O)n4C)cc1C(N)=O [Example 125.2, 5-[1-(1,3-Dimethyl-1H-pyrazol-4-yl)-3-methyl-2-oxo-2,3-dihydro-1H-imidazo[4,5-c]quinolin-8-yl]-2-methoxy-nicotinamide] | 5
7 | 6 | 17 | Cc1ncc(-c2ccc3ncc4c(c3c2)n(-c2cn(C)nc2C)c(=O)n4C)cc1OC(CF)CF [Example 189, 1-(1,3-Dimethyl-1H-pyrazol-4-yl)-8-[5-(2-fluoro-1-fluoromethyl-ethoxy)-6-methyl-pyridin-3-yl]-3-methyl-1,3-dihydro-imidazo[4,5-c]quinolin-2-one] | 1
8 | 23 | 71 | Cc1nn(C)cc1-n1c(=O)n(C)c2cnc3ccc(-c4cccc(S(C)(=O)=O)c4)cc3c21 [Example 40, 1-(1,3-Dimethyl-1H-pyrazol-4-yl)-8-(3-methanesulfonyl-phenyl)-3-methyl-1,3-dihydro-imidazo[4,5-c]quinolin-2-one] | 36
9 | 37 | 619 | CCNc1cc(-c2ccc3ncc4c(c3c2)n(-c2c(C)nn(C)c2C)c(=O)n4C)cnc1F [Example 154.1, 8-(5-Ethylamino-6-fluoro-pyridin-3-yl)-3-methyl-1-(1,3,5-trimethyl-1H-pyrazol-4-yl)-1,3-dihydro-imidazo[4,5-c]quinolin-2-one] | 3
10 | 9 | 21 | Cc1nn(C)cc1-n1c(=O)n(C)c2cnc3ccc(-c4cnc5c(c4)OCCN5C)cc3c21 [Example 209, 1-(1,3-Dimethyl-1H-pyrazol-4-yl)-3-methyl-8-(4-methyl-3,4-dihydro-2H-pyrido[3,2-b][1,4]oxazin-7-yl)-1,3-dihydro-imidazo[4,5-c]quinolin-2-one] | 2
11 | 19 | 4 | CCn1cc(-n2c(=O)n(C)c3cnc4ccc(-c5ccc(NC)nc5)cc4c32)c(C)n1 [Example 118.4, 1-(1-Ethyl-3-methyl-1H-pyrazol-4-yl)-3-methyl-8-(6-methylamino-pyridin-3-yl)-1,3-dihydro-imidazo[4,5-c]quinolin-2-one] | 2
12 | 44 | 33 | CCn1cc(-n2c(=O)n(C)c3cnc4ccc(-c5cnc(N(C)C)nc5)cc4c32)c(C)n1 [Example 6.4, 8-(2-Dimethylamino-pyrimidin-5-yl)-1-(1-ethyl-3-methyl-1H-pyrazol-4-yl)-3-methyl-1,3-dihydro-imidazo[4,5-c]quinolin-2-one] | 10
13 | 47 | 28 | Cc1nn(C)cc1-n1c(=O)n(C)c2cnc3ccc(-c4cccc(O)c4)cc3c21 [Example 32.1, 1-(1,3-Dimethyl-1H-pyrazol-4-yl)-8-(3-hydroxy-phenyl)-3-methyl-1,3-dihydro-imidazo[4,5-c]quinolin-2-one] | 11
14 | 6 | 16 | CCOc1cncc(-c2ccc3ncc4c(c3c2)n(-c2cn(C)nc2Cl)c(=O)n4C)c1 [Example 56.4, 1-(3-Chloro-1-methyl-1H-pyrazol-4-yl)-8-(5-ethoxy-pyridin-3-yl)-3-methyl-1,3-dihydro-imidazo[4,5-c]quinolin-2-one] | 1
15 | 19 | 79 | COCc1cncc(-c2ccc3ncc4c(c3c2)n(-c2cn(C)nc2C)c(=O)n4C)c1 [Example 54.1, 1-(1,3-Dimethyl-1H-pyrazol-4-yl)-8-(5-methoxymethyl-pyridin-3-yl)-3-methyl-1,3-dihydro-imidazo[4,5-c]quinolin-2-one] | 5
16 | 29 | 51 | Cc1nn(C)cc1-n1c(=O)n(C)c2cnc3ccc(-c4cccc5c4OC(F)(F)O5)cc3c21 [Example 35, 8-(2,2-Difluoro-benzo[1,3]dioxol-4-yl)-1-(1,3-dimethyl-1H-pyrazol-4-yl)-3-methyl-1,3-dihydro-imidazo[4,5-c]quinolin-2-one] | 2
17 | 12 | 107 | Cc1nn(C)cc1-n1c(=O)n(C)c2cnc3ccc(-c4cccc(S(=O)(=O)N(C)C)c4)cc3c21 [Example 53.1, 3-[1-(1,3-Dimethyl-1H-pyrazol-4-yl)-3-methyl-2-oxo-2,3-dihydro-1H-imidazo[4,5-c]quinolin-8-yl]-N,N-dimethyl-benzenesulfonamide] | 43
18 | 42 | 14 | CCOc1ccc(-c2ccc3ncc4[nH]c(=O)n(-c5cn(C)nc5C)c4c3c2)cn1 [Example 110, 1-(1,3-Dimethyl-1H-pyrazol-4-yl)-8-(6-ethoxy-pyridin-3-yl)-1,3-dihydro-imidazo[4,5-c]quinolin-2-one] | 78
19 | 11 | 37 | Cc1nn(C)cc1-n1c(=O)n(C)c2cnc3ccc(-c4cnc(CO)c(OC(C)C)c4)cc3c21 [Example 190, 1-(1,3-Dimethyl-1H-pyrazol-4-yl)-8-(6-hydroxymethyl-5-isopropoxy-pyridin-3-yl)-3-methyl-1,3-dihydro-imidazo[4,5-c]quinolin-2-one] | 2
20 | 39 | 30 | Cc1nn(C(C)C)cc1-n1c(=O)n(C)c2cnc3ccc(-c4ccc(N(C)C)nc4)cc3c21 [Example 4.1, 8-(6-Dimethylamino-pyridin-3-yl)-1-(1-isopropyl-3-methyl-1H-pyrazol-4-yl)-3-methyl-1,3-dihydro-imidazo[4,5-c]quinolin-2-one] | 15
